Data from patent publication US4997843A, “2,4-disubstituted derivatives of tetrahydrofuran useful for the treatment of PAF mediated illnesses” (J Uriach & Cia S.A., priority 1987, dated 1991).
Where two headings read alike, the source gives them in different places.

What was measured:
[1] = system: hypotension induced by PAF; assay: Test 2: inhibition of the hypotensive effect induced by PAF in normotense rats; type: in vivo, male Sprague Dawley rats; conditions: anesthetized rats, compound via femoral vein 3 min before PAF (0.5 mg/Kg, i.v.); for ED50: Rattus norvegicus, iv, read-out: IC50 (inhibition of the hypotension induced by PAF)
Protocol: TEST 2--INHIBITION OF THE HYPOTENSIVE EFFECT INDUCED BY PAF IN NORMOTENSE RATS
Male Sprague Dawley rats, of 180-220 g of weight, anesthetized with sodium pentobarbital (50 mg/Kg, i.p. 1 mL/100 g) have been used. In order to measure the average arterial pressure a polyethylene catheter was introduced into the carotid artery. The arterial pressure was recorded with the help of a transducer connected with a R611 Beckman polygraph. The tested compounds were administrated through the femoral vein 3 min. before the injection of PAF (0.5 mg/Kg, i.v.).

[2] = system: platelet aggregation induced by PAF; assay: Test 1: inhibition of platelet aggregation induced by PAF in vitro (rabbit platelet rich plasma, Born nephelometric technique); type: cell-based, male New Zealand albino rabbits; conditions: PAF C18 16 nM final, read-out: IC50 (concentration of the drug needed to inhibit the platelet aggregation in a 50%)
Protocol: TEST 1: INHIBITION OF PLATELET AGGREGATION INDUCED BY PAF
The platelet rich plasma (PRP) is prepared by blood centrifugation at 250 xg for 10 min. at 4° C. and it is diluted with platelet poor plasma (PPP) obtained by additional centrifugation at 300 xg for 10 min. The amount of platelets is adjusted to […].

[3] = Oryctolagus cuniculus, Platelet

Compound	ED50 [1] [mg/kg]	IC50 [2, 3] [µM]	also measured
CCCCCCCCCCCCCCCCOCC1CC(COCCCCCC[n+]2ccsc2)CO1 (mixture of isomers) [Compound 63, (35)-cis, trans-3-[6-[(2-hexadecyloxymethyltetrahydrofuran-4-yl)methoxy]hexyl]thiazolium 4-methylbenzenesulfonate]	2.5	1.4	–
CCCCCCCCCCCCOCC1COC(COCCCCCCC[n+]2ccsc2)C1 (racemic) [Compound 1, (±)-cis, trans-3-[7-[(4-dodecyloxymethyltetrahydrofuran-2-yl)methoxy]heptyl]thiazolium 4-methylbenzenesulphonate]	3.7	2.5	–
CCCCCCCCCCCCCCOCC1COC(COCCCCCCC[n+]2ccsc2)C1 (racemic) [Compound 2, (±)-cis, trans-3-[7-(4-tetradecyloxymethyltetrahydrofuran-2-yl)methoxy]heptyl]thiazolium 4-methylbenzenesulfonate]	1.4	0.9	–
CCCCCCCCCCCCCCOCC1COC(COCCCCCC[n+]2ccsc2)C1 (racemic) [Compound 3, (±)-cis, trans-3-[6-[(4-tetradecyloxymethyltetrahydrofuran-2-yl)methoxy]hexyl]thiazolium 4-methylbenzenesulfonate]	3	0.7	–
CCCCCCCCCCCCCCCCOCC1COC(COCCCCCC[n+]2ccsc2)C1 (racemic) [Compound 4, (±)-cis, trans-3-[6-[(4-hexadecyloxymethyltetrahydrofuran-2-yl)methoxy]hexyl]thiazolium 4-methylbenzenesulfonate]	1.2	1.4	–
CCCCCCCCCCCCCCCCOCC1COC(COC(=O)CCCCC[n+]2ccsc2)C1 (racemic) [Compound 5, (±)-cis, trans-3-[6-[(4-hexadecyloxymethyltetrahydrofuran-2-yl)methoxy]-6-oxohexyl]thiazolium 4-methylbenzenesulfonate]	1.6	4.8	–
CCCCCCCCCCCCCCCCCCOCC1COC(COC(=O)CCCCC[n+]2ccsc2)C1 (racemic) [Compound 6, (±)-cis, trans-3-[6-[(4-octadecyloxymethyltetrahydrofuran-2-yl)methoxy]-6-oxohexyl]thiazolium 4-methylbenzenesulfonate]	1.9	8.6	–
CCCCCCCCCCCCCCCNC(=O)OCC1COC(COC(=O)CCCCC[n+]2ccsc2)C1 (racemic) [Compound 7, (±)-cis, trans-3-[6-oxo-6-[(4-pentadecylaminocarbonyloxymethyltetrahydrofuran-2-yl)methoxy]hexyl]thiazolium 4-methylbenzenesulfonate]	3.6	5.9	–
CCCCCCCCCCCCCCCCOCC1COC(COC(=O)NCc2cccc[n+]2CC)C1 (racemic) [Compound 10, (±)-cis, trans-N-ethyl-2-[[[(4-hexadecyloxymethyltetrahydrofuran-2-yl)methoxy]carbonyl]amino]methylpyridinium iodide]	6.6	3.8	–
CCCCCCCCCCCCCCCCOCC1COC(COC(=O)N(Cc2cccc[n+]2C)C(C)=O)C1 (racemic) [Compound 12, (±)-cis, trans-N-methyl-2-[N-acetyl-[[[(4-hexadecyloxymethyltetrahydrofuran-2-yl)methoxy]carbonyl]amino]methyl]pyridinium iodide]	0.23	0.1	–
CCCCCCCCCCCCCCCCOCC1COC(COC(=O)N(Cc2cccc[n+]2CC)C(C)=O)C1 (racemic) [Compound 13, (±)-cis, trans-N-ethyl-2-[N-acetyl-[[[(4-hexadecyloxymethyltetrahydrofuran-2-yl)methoxy]carbonyl]amino]methyl]pyridinium iodide]	0.035	–	IC50 [2]: 0.022 µM
CCCCCCCCCCCCCCCCOCC1COC(COC(=O)N(Cc2cccc[n+]2CC)C(=O)OCC)C1 (racemic) [Compound 15, (±)-cis, trans-N-ethyl-[N-ethoxycarbonyl-[[[(4-hexadecyloxymethyltetrahydrofuran-2-yl)methoxy]carbonyl]amino]methyl]pyridinium iodide]	0.035	0.048	–
CCCCCCCCCCCCCCCCCCOCC1COC(COC(=O)N(Cc2cccc[n+]2C)C(C)=O)C1 (racemic) [Compound 19, (±)-cis, trans-N-methyl-2-[N-acetyl-[[[(4-octadecyloxymethyltetrahydrofuran-2-yl)methoxy]carbonyl]amino]methyl]pyridinium iodide]	0.14	0.09	–
CCCCCCCCCCCCCCCCCCOCC1COC(COC(=O)N(Cc2cccc[n+]2CC)C(C)=O)C1 (racemic) [Compound 20, (±)-cis, trans-N-ethyl-2-[N-acetyl-[[[(4-octadecyloxymethyltetrahydrofuran-2yl)methoxy]carbonyl]amino]methyl]pyridinium iodide]	0.035	0.034	–
CCCCCCCCCCCCCCOC[C@H]1CO[C@@H](COC(=O)N(Cc2cccc[n+]2CC)C(C)=O)C1.[Cl-] (racemic) [Compound 25, (±)-cis, trans-N-ethyl-2-[N-acetyl-[[[(4-tetradecyloxymethyltetrahydrofuran-2-yl)methoxy]carbonyl]amino]-methyl]pyridinium chloride]	–	–	IC50 (inhibition of the hypotension induced by PAF) [1]: 0.081 mg/Kg, i.v.; IC50 [2]: 0.095 µM
CCCCCCCCCCCCCCCCCCOCC1CC(COCCCCC[n+]2ccsc2)CO1 (racemic) [Compound 62, (±)-cis, trans-3-[5-[(2-octadecyloxymethyltetrahydrofuran-4-yl)methoxy]pentyl]thiazolium 4-methylbenzenesulfonate]	–	2.1	–
CCCCCCCCCCCCCCC1COC(COCCCCCC[N+](C)(C)C)C1 (racemic) [Compound 71, (±)-cis, trans-6-[6-(4-tetradecyltetrahydrofuran-2-yl)methoxy]N,N,N-trimethylhexaminium 4-methylbenzenesulfonate]	–	8.2	–
CCCCCCCCCCCCCCC1COC(COCCCCCC[n+]2ccn(C)c2)C1 (racemic) [Compound 73, (±)-cis, trans-3-methyl-1-[6-[(4-tetradecyltetrahydrofuran-2-yl)methoxy]hexyl]imidazolium 4-methylbenzenesulfonate]	–	15	–
CCCCCCCCCCCCCCC1COC(COCCCCCC[n+]2ccccc2)C1 (racemic) [Compound 74, (±)-cis, trans-1-[6-[(4-tetradecyltetrahydrofuran-2-yl)methoxy]hexyl]pyridinium methanesulfonate]	–	6.3	–
CCCCCCCCCCCCCCC1COC(COC(=O)CCCCC[n+]2ccsc2)C1 (racemic) [Compound 75, (±)-cis, trans-3-[6-[(4-tetradecyltetrahydrofuran-2-yl)methoxy]-6-oxohexyl]thiazolium 4-methylbenzenesulfonate]	–	50	–
CCCCCCCCCCCCCCC1COC(COC(=O)CCCCC[N+](C)(C)C)C1 (racemic) [Compound 76]	–	180	–
CCCCCCCCCCCCCCC1COC(COC(=O)CCCCC[n+]2ccccc2)C1 (racemic) [Compound 77, (±)-cis, trans-1-[6-[(4-tetradecyltetrahydrofuran-2-yl)methoxy]-6-oxohexyl]pyridinium 4-methylbenzenesulfonate]	–	120	–
CCCCCCCCCCCCCCC1COC(COC(=O)CCCCC[n+]2ccn(C)c2)C1 (racemic) [Compound 78, (±)-cis, trans-3-methyl-1-[6-[(4-tetradecyltetrahydrofuran-2-yl)methoxy]-6-oxohexyl]imidazolium 4-methylbenzenesulfonate]	–	210	–
CCCCCCCCCCCCCCC1COC(COCCCC[n+]2ccsc2)C1 (racemic) [Compound 79, (±)-cis, trans-3-[4-[(4-tetradecyltetrahydrofuran-2-yl)methoxy]butyl]thiazolium 4-methylbenzenesulfonate]	–	39	–
CCCCCCCCCCCCCCC1COC(COCCCC[n+]2ccccc2C)C1 (racemic) [Compound 80, (±)-cis, trans-2-methyl-1-[4-[(4-tetradecyltetrahydrofuran-2-yl)methoxy]butyl]pyridinium 4-methylbenzenesulfonate]	–	75	–
CCCCCCCCCCCCCCC1COC(COCCCC[N+]2(C)CCOCC2)C1 (racemic) [Compound 81, (±)-cis, trans-4-methyl-4-[4-[(4-tetradecyltetrahydrofuran-2-yl)methoxy]butyl]morpholinium 4-methylbenzenesulfonate]	–	51	–
CCCCCCCCCCCCCC[C@@H]1CO[C@@H](COCCCCCC[n+]2ccsc2)C1 (racemic) [Compound 84, (±)-trans-3-[6-[(4-tetradecyltetrahydrofuran-2-yl)methoxy]hexyl]thiazolium 4-methylbenzenesulfonate]	–	–	IC50 ([2]; Oryctolagus cuniculus): 2.6 µM
CCCCCCCCCCCCCC[C@@H]1CO[C@H](COCCCCCC[n+]2ccsc2)C1 (relative stereo) [Compound 83, (±)-cis-3-[6-[(4-tetradecyltetrahydrofuran-2-yl)methoxy]hexyl]thiazolium4-methylbenzenesulfonate]	–	2.6	–
